In patent publication US11110103B2, “Inhibitors of glucocorticoid receptor” (ORIC Pharmaceuticals, Inc., priority 2015, dated 2021) one finds IC50 data, which are given here for 22 compounds.

The target of this experiment is T1, GR (Homo sapiens, UniProt P04150).
T1 construct: expressed in transfected cells; host or cells: CHO-K1 (CHO-K1-GR-MMTV-Luc reporter cells)
T1 sequence (P04150 1-777): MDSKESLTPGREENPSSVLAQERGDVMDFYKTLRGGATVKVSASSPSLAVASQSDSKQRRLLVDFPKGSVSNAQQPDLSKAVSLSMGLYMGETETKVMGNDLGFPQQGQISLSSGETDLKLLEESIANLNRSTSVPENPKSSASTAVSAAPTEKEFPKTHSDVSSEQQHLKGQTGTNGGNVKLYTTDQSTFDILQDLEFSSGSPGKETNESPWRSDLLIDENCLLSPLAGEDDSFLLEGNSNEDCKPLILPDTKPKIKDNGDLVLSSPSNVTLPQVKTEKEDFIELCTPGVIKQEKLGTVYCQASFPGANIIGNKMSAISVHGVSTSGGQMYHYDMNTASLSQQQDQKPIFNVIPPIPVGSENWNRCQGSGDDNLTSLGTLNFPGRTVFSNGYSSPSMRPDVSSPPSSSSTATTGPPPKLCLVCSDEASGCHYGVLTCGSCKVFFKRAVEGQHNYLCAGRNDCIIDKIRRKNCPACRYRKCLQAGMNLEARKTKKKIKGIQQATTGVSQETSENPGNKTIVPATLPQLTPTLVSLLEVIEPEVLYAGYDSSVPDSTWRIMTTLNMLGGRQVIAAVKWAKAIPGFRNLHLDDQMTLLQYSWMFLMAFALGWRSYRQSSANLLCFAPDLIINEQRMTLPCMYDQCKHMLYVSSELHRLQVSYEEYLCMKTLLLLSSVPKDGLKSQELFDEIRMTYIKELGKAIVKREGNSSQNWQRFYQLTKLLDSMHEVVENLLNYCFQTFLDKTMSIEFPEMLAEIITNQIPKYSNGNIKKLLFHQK
Nature of the experiment: In Vitro GR Luciferase Reporter Assay (antagonist assay). The experiment is classed as cell-based. The note with it: CHO-K1-GR-MMTV-Luc reporter cells, 10 nM Dexamethasone, 18-24 hours. As to the method: Cell Line: CHO-K1-GR-MMTV-Luc reporter cells
Culture Media: DMEM (with phenol red)+10% FBS
Assay Media: DMEM (without phenol red)+10% CSS
Culture CHO-K1-GR-MMTV-Luc reporter cells in 15 cm plates in Culture Media at conditions less than 90% confluence.
Prepare 200×DMSO 1:5 serial dilutions of control and test compounds in 96-well non-sterile V bottom plate in DMSO, 8 serial dilutions for each compound.
Add compounds: 5 ul of assay media diluted compounds were added to appropriate wells and followed a quick spin (1000 rpm, 10 sec) to bring media and cells to the bottom of plate. The plates were covered with SealMate film to avoid evaporation and placed in 37° C. incubator for approximately 18-24 hours.
Read plates: Equilibrate appropriate amount of Promega OneGlo luciferase reagent to room temperature. Remove the plates from incubator and add 25 uL of OneGlo reagent/well by multiple channel pipette and read the plates with Tecan F500 luminometer within 3 minutes.
The ability of the compounds disclosed herein to inhibit GR activity was quantified and the respective IC50 value was determined.
(In general: A reporter such as luciferase makes a cellular process visible.)
As a reminder, the IC50 is the midpoint of a concentration-inhibition curve. `CC#C[C@]1(O)CC[C@H]2[C@@H]3CCC4=CC(=O)CCC4=C3[C@@H](c3cc(F)c(N(C)C)cc3F)C[C@@]21C` returned an IC50 of less than 100 nM.
In the case of `CC#C[C@]1(O)[C@H](C)C[C@H]2[C@@H]3CCC4=CC(=O)CCC4=C3[C@@H](c3cc(F)c(C)c(F)c3)C[C@@]21C` it was greater than 100 nM.
As to `CC#C[C@]1(O)CC[C@H]2[C@@H]3CCC4=CC(=O)CCC4=C3[C@@H](c3cccc(C(C)(C)C)c3)C[C@@]21C`, the IC50 was greater than 100 nM.
In the case of `CC#C[C@]1(O)CC[C@H]2[C@@H]3CCC4=CC(=O)CCC4=C3[C@@H](c3ccc(Cl)c(C4CC4)c3)C[C@@]21C` it was greater than 100 nM; in that of `CC#C[C@]1(O)CC[C@H]2[C@@H]3CCC4=CC(=O)CCC4=C3[C@@H](c3ccc(S(=O)(=O)N4CCCCC4)cc3)C[C@@]21C` [drawing 181], less than 100 nM.
To `CC#C[C@]1(O)[C@H](C)C[C@H]2[C@@H]3CCC4=CC(=O)CCC4=C3[C@@H](c3c(F)cc(N4CCOCC4)cc3F)C[C@@]21C` belongs less than 100 nM; to `CC#C[C@]1(OC(C)=O)CC[C@H]2[C@@H]3CCC4=CC(=O)CCC4=C3[C@@H](c3cc(F)c(C)c(F)c3)C[C@@]21C`, less than 100 nM; to `CC#C[C@]1(O)CC[C@H]2[C@@H]3CCC4=CC(=O)CCC4=C3[C@@H](c3ccc(C)c(N4CCC4)c3)C[C@@]21C`, greater than 100 nM.
Regarding `CC#C[C@]1(O)[C@H](C)C[C@H]2[C@@H]3CCC4=CC(=O)CCC4=C3[C@@H](c3ccc(S(=O)(=O)N(C)C)cc3)C[C@@]21C`, the IC50 was less than 100 nM.
`CC#C[C@]1(O)CC[C@H]2[C@@H]3CCC4=CC(=O)CCC4=C3[C@@H](c3ccc(C)c(C)c3)C[C@@]21C` [drawing 192]: the IC50 was less than 100 nM.
The compound `CC#C[C@]1(O)CC[C@H]2[C@@H]3CCC4=CC(=O)CCC4=C3[C@@H](c3c(F)cc(OC)cc3F)C[C@@]21C` came in with an IC50 of less than 100 nM.
In the case of `CC#C[C@]1(O)CC[C@H]2[C@@H]3CCC4=CC(=O)CCC4=C3[C@@H](c3cccc(OCC)c3)C[C@@]21C` [drawing 186] it was less than 100 nM.
Consider `CC#C[C@]1(O)[C@H](C)C[C@H]2[C@@H]3CCC4=CC(=O)CCC4=C3[C@@H](c3c(F)cc(N4CCC4)cc3F)C[C@@]21C`, for which the IC50 was less than 100 nM.
`CC#C[C@]1(O)[C@H](CC)C[C@H]2[C@@H]3CCC4=CC(=O)CCC4=C3[C@@H](c3ccc(N(C)C)cc3)C[C@@]21C` [drawing 225] showed an IC50 of less than 100 nM.
Consider `CC#C[C@]1(O)[C@H](C)C[C@H]2[C@@H]3CCC4=CC(=O)CCC4=C3[C@@H](c3c(F)cc(N(C)C)cc3F)C[C@@]21C`, for which the IC50 was less than 100 nM.
Turning to `CC#C[C@]1(O)[C@H](CC)C[C@H]2[C@@H]3CCC4=CC(=O)CCC4=C3[C@@H](c3ccccc3)C[C@@]21C`, the IC50 is greater than 100 nM.
Take `CC#C[C@]1(O)CC[C@H]2[C@@H]3CCC4=CC(=O)CCC4=C3[C@@H](c3ccc(Cl)c(C(C)C)c3)C[C@@]21C` [drawing 200]: the IC50 is less than 100 nM.
For the compound `CC#C[C@]1(O)CC[C@H]2[C@@H]3CCC4=CC(=O)CCC4=C3[C@@H](c3ccc(N(C)C)c(C(C)C)c3)C[C@@]21C` [drawing 203], the IC50 is greater than 100 nM.
In turn, `CC#C[C@]1(O)CC[C@H]2[C@@H]3CCC4=CC(=O)CCC4=C3[C@@H](c3c(F)cc(N4CCCC4)cc3F)C[C@@]21C` had an IC50 of less than 100 nM.
To `CC#C[C@]1(O)CC[C@H]2[C@@H]3CCC4=CC(=O)CCC4=C3[C@@H](c3c(F)cc(C)cc3F)C[C@@]21C` belongs less than 100 nM; to `CC#C[C@]1(O)CC[C@H]2[C@@H]3CCC4=CC(=O)CCC4=C3[C@@H](c3ccc(F)c(C#N)c3)C[C@@]21C` [drawing 199], less than 100 nM.
`CC#C[C@]1(OC)CC[C@H]2[C@@H]3CCC4=CC(=O)CCC4=C3[C@@H](c3cc(F)c(C)c(F)c3)C[C@@]21C`: the IC50 was greater than 100 nM.
